Source: PubChem BioAssay (NCI)
Where “and” joins values, the source holds several entries; their conditions need not be identical. Identical values can stand only once.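 Cultured in 96-well plates, cells were exposed to test compound for 48 hours across five concentrations. GI50 is the concentration that inhibits growth by half. TGI: concentration producing complete growth inhibition.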 *1 amine or outer side, *2 acyl side, *3 side chain or, on linkers, in order; H or OH if unused. Where a SMILES comes first, the peptide text is derived from it. Bridges are numbered along the chain shown (N, C = ends). [ ]: non-standard residue; d: D form. The star is where a group is joined. ξ: configuration not given here. X34 = O=C(C(CCCCNO[*:3])N[*:1])[*:2]; Fmoc = O=C(OCC1c2ccccc2-c2ccccc21)*; ξW = NC(Cc1c[nH]c2ccccc12)C(=O)O; ξP = O=C(O)C1CCCN1

Assays:
Assay in all cases: inhibition of tumour cell growth, NCI panel, 48 h
[1] = tested on: SN12C renal
[2] = tested on: SK-MEL-28 melanoma
[3] = tested on: UO-31 renal
[4] = tested on: HCT-15 colon
[5] = tested on: MDA-MB-231 breast
[6] = tested on: PC-3 prostate
[7] = tested on: SF-539 CNS
[8] = tested on: CCRF-CEM leukemia
[9] = tested on: KM12 colon
[10] = tested on: SK-MEL-2 melanoma

SMILES	TGI [1]	TGI [2]	TGI [3]	TGI [4]	TGI [5]	TGI [6]	TGI [7]	TGI [8]	TGI [9]	TGI [10]	GI50 [2]	GI50 [3]	GI50 [4]	GI50 [5]	GI50 [6]	GI50 [7]	GI50 [10]	GI50 [1]	GI50 [8]	GI50 [9]
COc1ccc(C2CC(c3c(O)ccc4ccccc34)=NN2c2ccc([N+](=O)[O-])cc2[N+](=O)[O-])cc1OC (configuration not stated)	> 100 µM	> 100 µM	97.4 µM	> 100 µM	> 68.8 µM	> 70.3 µM	> 79.8 µM	> 50.3 µM	> 76.6 µM	> 65.1 µM	–	–	–	–	–	–	–	–	–	–
NC(=O)N/N=C(\Cc1nc2ccc(Cl)cc2[nH]c1=O)C(=O)Nc1ccc(Cl)cc1Cl	> 100 µM	> 100 µM	> 100 µM	> 100 µM	> 100 µM	> 100 µM	> 100 µM	> 100 µM	> 100 µM	> 100 µM	–	–	–	–	–	–	–	–	–	–
CCOP(=O)(OCC)/C(C#N)=C/c1cnc(-c2ccccc2)[nH]1	> 100 µM	> 100 µM	> 100 µM	> 100 µM	> 100 µM	> 100 µM	> 100 µM	> 100 µM	> 100 µM	> 100 µM	–	–	–	–	–	–	–	–	–	–
COc1ccccc1Nc1nc(N)nc(N)c1N=O	> 100 µM	> 100 µM	> 100 µM	> 100 µM	> 100 µM	> 100 µM	> 100 µM	> 100 µM	> 100 µM	> 100 µM	–	–	–	–	–	–	–	–	–	–
O=C(Nc1ccc(Br)cc1)c1c(-c2ccccc2)c2ccc(O)cc2oc1=O	> 10 µM	> 10 µM	> 10 µM	> 10 µM	> 10 µM	> 10 µM	> 10 µM	> 10 µM	> 10 µM	> 10 µM	–	–	–	–	–	–	–	–	–	–
OC1C2[C@@H](O)CCCN2C[C@@H](O)[C@H]1O (some centres not stated)	> 100 µM	> 100 µM	> 100 µM	> 100 µM	> 100 µM	> 100 µM	> 100 µM	> 100 µM	> 100 µM	> 100 µM	–	–	–	–	–	–	–	–	–	–
COc1cc(-c2cc(=O)c3cc4c(cc3[nH]2)OCO4)cc(OC)c1O	> 10 µM	> 10 µM	> 10 µM	> 10 µM	> 10 µM	> 10 µM	> 10 µM	> 10 µM	> 10 µM	> 10 µM	–	–	–	–	–	–	–	–	–	–
O=C1C(Cl)=C(N2CCN(C3=C(Cl)C(=O)c4ccccc4C3=O)CC2)C(=O)c2ccccc21	3.09 µM	3.48 µM	3.39 µM	3.07 µM	3.34 µM	20.3 µM	3.15 µM	0.718 µM	15.4 µM	3.34 µM	–	–	–	–	–	–	–	–	–	–
O=C(NNC(=S)Nc1ccc(Cl)cc1)c1cc(-c2ccccc2)nc2ccccc12	21.4 µM	14.1 µM	18.1 µM	14.9 µM	29.4 µM	15.1 µM	11.6 µM	6.91 µM	22.5 µM	9.89 µM	–	–	–	–	–	–	–	–	–	–
Nc1ccc2nc(-c3ccccn3)c(-c3ccccn3)nc2c1	> 100 µM	> 100 µM	> 100 µM	> 100 µM	> 100 µM	> 100 µM	> 100 µM	> 100 µM	> 100 µM	> 100 µM	–	–	–	–	–	–	–	–	–	–
Cc1c(F)c(N)c2c(=O)cc(-c3ccc(NC(=O)CN(C)C)c(F)c3)oc2c1F	> 100 µM	> 100 µM	> 100 µM	> 100 µM	> 83.7 µM	> 100 µM	> 100 µM	> 76.6 µM	> 100 µM	> 100 µM	–	–	–	–	–	–	–	–	–	–
Cc1c(-c2nc3ccccc3[nH]2)c(=O)n(-c2ccccc2)n1C	> 100 µM	> 100 µM	> 100 µM	> 100 µM	> 100 µM	> 100 µM	> 100 µM	> 100 µM	> 100 µM	> 100 µM	–	–	–	–	–	–	–	–	–	–
C=C(C)C12CC(COC(=O)c3ccccc3)C34OC5(OC1C3C1OC1(CO)C(O)C1(O)C(OC(=O)c3ccccc3)C(C)C(C(C)CCCCCCC5O)C14)O2 (configuration not stated)	> 100 µM	> 100 µM	> 100 µM	> 100 µM	> 100 µM	> 100 µM	> 100 µM	> 100 µM	> 100 µM	> 100 µM	–	–	–	–	–	–	–	–	–	–
Brc1ccc(CCNCCN2CCCCC2)cc1	58.5 µM	24.1 µM	24.6 µM	33.6 µM	21.4 µM	31.7 µM	23.3 µM	> 100 µM	30.2 µM	34.5 µM	–	–	–	–	–	–	–	–	–	–
CN(CCC#N)c1ccc(/C=C2\SC(=S)NC2=O)cc1	> 100 µM	> 100 µM	> 100 µM	> 100 µM	> 100 µM	> 100 µM	> 100 µM	> 100 µM	> 100 µM	> 100 µM	–	–	–	–	–	–	–	–	–	–
COc1cc(/C=C2/C(=O)N(C(=O)c3ccccc3O)N=C2C)cc(OC)c1OC	> 91.2 µM	> 100 µM	6.81 µM	> 100 µM	> 100 µM	> 100 µM	6.39 µM	> 100 µM	> 100 µM	> 29.4 µM	–	–	–	–	–	–	–	–	–	–
Cc1nc(-c2ccc([N+](=O)[O-])cc2)cn2c1nc1ccccc12	> 100 µM	> 100 µM	> 100 µM	> 100 µM	> 100 µM	> 100 µM	> 100 µM	> 100 µM	> 100 µM	69.2 µM	–	–	–	–	–	–	–	–	–	–
COCOC1/C=C/CCCC#C[C@H](C)C(=O)CC1 (some centres not stated)	23.6 µM	29.4 µM	28 µM	24 µM	17 µM	21.5 µM	30.4 µM	8.46 µM	17 µM	31.3 µM	–	–	–	–	–	–	–	–	–	–

SMILES	TGI [1]	TGI [2]	TGI [3]	TGI [4]	TGI [5]	TGI [6]	TGI [7]	TGI [8]	TGI [9]	TGI [10]	GI50 [2]	GI50 [3]	GI50 [4]	GI50 [5]	GI50 [6]	GI50 [7]	GI50 [10]	GI50 [1]	GI50 [8]	GI50 [9]
CCOc1cc(NC(C)=O)ccc1C(=O)NNC(=O)c1ccccc1OC(C)=O	> 91.4 µM	> 100 µM	> 100 µM	> 100 µM	> 100 µM	> 100 µM	> 80.7 µM	> 100 µM	> 100 µM	> 100 µM	–	–	–	–	–	–	–	–	–	–
NC(=O)CNC(=O)C1CCCN1C(=O)C1CCCCNOC(=O)CC[C@@H](NC(=O)OCC2c3ccccc3-c3ccccc32)C(=O)NC(Cc2c[nH]c3ccccc23)C(=O)N1 (some centres not stated) (Fmoc-[dE][ξW][X34][ξP]G-NH2; ester 1-3)	> 100 µM	> 100 µM	> 100 µM	> 100 µM	> 100 µM	> 100 µM	> 100 µM	> 100 µM	> 100 µM	> 100 µM	–	–	–	–	–	–	–	–	–	–
COCOC1/C=C/CCCCC2=C(C)C=C(C1)O2 (configuration not stated)	> 100 µM	> 100 µM	> 100 µM	> 100 µM	> 100 µM	> 100 µM	> 100 µM	> 100 µM	> 100 µM	> 100 µM	–	–	–	–	–	–	–	–	–	–
COc1cccc(-c2cc(=O)c3ccccc3o2)c1N	> 100 µM	> 100 µM	> 100 µM	> 100 µM	> 100 µM	> 100 µM	> 100 µM	> 100 µM	> 100 µM	> 100 µM	–	–	–	–	–	–	–	–	–	–
CC(=O)OCC1OC(OC(C)(C)CC/C=C(\C)[C@@H]2C/C=C(\C)CC/C=C(\C)CC2)C(O)C(O)C1OC(C)=O (some centres not stated)	> 94.1 µM and 41.2 µM	> 100 µM and 40.6 µM	> 100 µM and 25.6 µM	> 100 µM and 29.2 µM	> 100 µM and 38.6 µM	> 94.8 µM and 25.8 µM	82.9 µM and 33.9 µM	20.8 µM and 67 µM	> 59.7 µM and 36.8 µM	> 100 µM and 29.9 µM	> 100 µM and 21.7 µM	53.4 µM and 12.7 µM	49.4 µM and 14.2 µM	> 61.2 µM and 18.9 µM	35.8 µM and 13.1 µM	32.6 µM and 13.5 µM	> 64.3 µM and 16.4 µM	–	–	–
CCCCN1C(=O)CC2[C@@H]3CCc4cc(OC(C)=O)ccc4C3CC[C@]2(C)C1=O (some centres not stated)	> 10 µM	> 10 µM	> 10 µM	> 10 µM	> 10 µM	> 10 µM	> 10 µM	> 10 µM	> 10 µM	> 10 µM	–	–	–	–	–	–	–	–	–	–
C=C1CC(COc2cc(=O)oc3ccccc23)(c2ccccc2)OC1=O (configuration not stated)	6.92 µM	6.13 µM	16 µM	3.78 µM	11.9 µM	5.9 µM	7.69 µM	2.26 µM	12.7 µM	2.33 µM	–	–	–	–	–	–	–	–	–	–
CC(C)(N=NC(C)(C)C(=O)NCCO)C(=O)NCCO	> 100 µM	> 100 µM	> 100 µM	> 100 µM	> 100 µM	> 100 µM	> 100 µM	> 100 µM	> 100 µM	> 100 µM	–	–	–	–	–	–	–	–	–	–
CSc1nc(Cl)c2c(n1)Sc1nc3cc4c(cc3n1C2O)OCCO4 (configuration not stated)	46.6 µM	21.7 µM	16 µM	11.1 µM	34.3 µM	65.2 µM	0.0867 µM	3.76 µM	> 100 µM	29.2 µM	–	–	–	–	–	–	–	–	–	–
O=C(CN1c2ccccc2Sc2ccccc21)N1CCNCC1	> 100 µM	> 100 µM	> 100 µM	> 100 µM	> 100 µM	> 100 µM	> 100 µM	> 100 µM	> 100 µM	> 100 µM	–	–	–	–	–	–	–	–	–	–
CCOC(=O)CNC(=O)C(CSCc1ccc(Br)cc1)NC(=O)CCC(N)C(=O)OCC (configuration not stated)	> 50 µM	> 50 µM	> 50 µM	> 50 µM	> 50 µM	> 50 µM	> 50 µM	> 50 µM	> 50 µM	> 50 µM	–	–	–	–	–	–	–	–	–	–
COc1ccc2[nH]c(O)c(/C=c3/cc4c(c(-c5cc(OC)c(OC)c(OC)c5)n3)=Nc3ccccc3-4)c2c1	> 100 µM	> 100 µM	> 100 µM	> 100 µM	36.6 µM	> 100 µM	> 100 µM	12.4 µM	> 100 µM	> 100 µM	26 µM	6.62 µM	5.3 µM	0.982 µM	5.47 µM	22.6 µM	15.9 µM	61.2 µM	1410 nM	5.04 µM
O=C(O)c1cc2c(cc1CC(Cc1ccc3c(c1)CCC3)C(=O)O)CCC2 (configuration not stated)	> 100 µM	> 100 µM	> 100 µM	> 100 µM	> 100 µM	> 100 µM	> 100 µM	> 100 µM	> 100 µM	> 100 µM	–	–	–	–	–	–	–	–	–	–
COc1cccc2c(N)c3cccc(C(=O)NCCN(C)C)c3nc12	0.488 µM	3.17 µM	3.04 µM	21.2 µM	0.853 µM	1.7 µM	0.758 µM	0.288 µM	3.59 µM	1.05 µM	–	–	–	–	–	–	–	–	–	–
OCCCCCNc1c2ccccc2nc2ccccc12	9.34 µM	16.9 µM	10 µM	13.9 µM	10.7 µM	7.2 µM	9.05 µM	> 61.7 µM	14.3 µM	7.43 µM	–	–	–	–	–	–	–	–	–	–
CCCc1cc(=O)c2c(C)c3[nH]c4ccc(Cl)cc4c3c(C)c2[nH]1	5.31 µM	3.14 µM	3.34 µM	3.37 µM	3.97 µM	14.7 µM	3.56 µM	5.83 µM	12.3 µM	14.6 µM	–	–	–	–	–	–	–	–	–	–
CC(CN1c2ccccc2Sc2ccccc21)N(C)C (configuration not stated)	29.1 µM	32.5 µM	32.8 µM	35.1 µM	32.4 µM	31.2 µM	34 µM	40.1 µM	37.6 µM	34.7 µM	–	–	–	–	–	–	–	–	–	–
